Assay results taken from patent US9896441B2 (Lycera Corporation, priority 2014, dated 2018).

How the values were obtained:
RORγ-LBD = target: T1, RORγ-LBD (Homo sapiens, UniProt P51449); experiment: RORγ-Ligand Binding Domain (LBD) TR-FRET Assay; assay type: biochemical; conditions: for TR-FRET Assay Max Response: maximum response;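 as to TR-FRET Assay Max Response: 665/615 nm signal ratio set to 100 without ursolic acid or test compound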
T1 construct: made in house; host or cells: SF9 cells (baculovirus); used as diluted lysate
T1 sequence (P51449 269-508 limits assumed): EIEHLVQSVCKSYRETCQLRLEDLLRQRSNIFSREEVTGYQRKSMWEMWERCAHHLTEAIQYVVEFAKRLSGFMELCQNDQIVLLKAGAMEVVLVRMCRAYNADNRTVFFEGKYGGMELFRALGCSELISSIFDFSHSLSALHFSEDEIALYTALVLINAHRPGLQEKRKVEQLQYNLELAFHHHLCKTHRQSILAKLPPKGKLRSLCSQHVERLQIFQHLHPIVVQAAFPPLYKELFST
How it was run: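 Compounds, diluted in DMSO and then in assay buffer (1% DMSO final), were combined with His-tagged RORγ-LBD lysate at roughly 3 nM final and a 200 nM biotinylated SRC1 LXXLL peptide. Ursolic acid was included at 2 μM final. Coactivator recruitment was detected by TR-FRET.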

Gal4-RORγ-LBD = target: T2, Gal4-RORγ-LBD (Homo sapiens, UniProt P51449); experiment: Gal4-RORγ Luciferase Reporter Assay in HEK-293T Cells; assay type: cell-based; conditions: HEK-293 cells; for Gal4-RORγ Assay Max Response: maximum response
T2 construct: expressed in transfected cells
T2 sequence (P51449 269-508 limits assumed): T1 sequence (P51449 269-508 limits assumed)
How it was run: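 Max Response was taken as the upper plateau of a 4-parameter logistic fit of luciferase signal, normalized to 100 for wells without ursolic acid or compound. Transiently Gal4-RORγ-LBD/Gal4-luc transfected HEK-293 cells carrying […] ursolic acid were incubated with test compounds (0.2% DMSO) overnight at 37 °C and read with One-Glo.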

[1] = luciferase reporter, in presence of ursolic acid
[2] = luciferase reporter, with ursolic acid
[3] = with 2 μM ursolic acid (RORγ antagonist), highest test concentration 10 μM
[4] = ursolic acid present, luciferase readout

EC50 (RORγ-LBD; RORγ-LBD TR-FRET assay) [nM]	EC50 (Gal4-RORγ-LBD; [1]) [nM]	EC50 (RORγ-LBD; RORγ-LBD TR-FRET) [nM]	EC50 (Gal4-RORγ-LBD; [2]) [nM]	Structure (SMILES)	TR-FRET Assay Max Response (RORγ-LBD; RORγ-LBD TR-FRET assay)	Gal4-RORγ Assay Max Response (Gal4-RORγ-LBD; [1])	further results
< 500	500 to 5000			CCOC(=O)C(=O)NCC[C@H]1CN(S(=O)(=O)c2ccc(F)c(OC)c2)c2cc(/C=C(\C)c3c(F)cccc3Cl)ccc2O1 [Example 116C, ethyl (S,E)-2-((2-(6-(2-(2-chloro-6-fluorophenyl)prop-1-en-1-yl)-4-((4-fluoro-3-methoxyphenyl)sulfonyl)-3,4-dihydro-2H-benzo[b][1,4]oxazin-2-yl)ethyl)amino)-2-oxoacetate]	*** (a value in the range of greater than 150 to 200)	** (a value in the range of greater than 90 to 150)	
< 500	< 500			C/C(=C\c1ccc2c(c1)C(S(=O)(=O)c1cccc(C(F)(F)F)c1)CC(CNS(C)(=O)=O)O2)c1c(F)cccc1Cl (stereo not shown) [Example 184, (E)-N-((6-(2-(2-Chloro-6-fluorophenyl)prop-1-en-1-yl)-4-((3-(trifluoromethyl)phenyl)sulfonyl)chroman-2-yl)methyl)methanesulfonamide]	*** (a value in the range of greater than 150 to 200)	** (a value in the range of greater than 90 to 150)	
		< 500	500 to 5000	O=C(O)CC[C@H]1CN(S(=O)(=O)c2cccc(C(F)(F)F)c2)c2cc(C=C3CCCC3)ccc2O1 [Example 92, (S)-3-(6-(Cyclopentylidenemethyl)-4-((3-(trifluoromethyl)phenyl)sulfonyl)-3,4-dihydro-2H-benzo[b][1,4]oxazin-2-yl)propanoic acid]			
< 500	500 to 5000			C/C(=C\c1ccc2c(c1)N(S(=O)(=O)c1cccc(C(F)(F)F)c1)[C@H](C)[C@H](NS(C)(=O)=O)C2)c1c(F)cccc1Cl [Example 116J, N-((2R,3R)-7-((E)-2-(2-chloro-6-fluorophenyl)prop-1-en-1-yl)-2-methyl-1-((3-(trifluoromethyl)phenyl)sulfonyl)-1,2,3,4-tetra-hydroquinolin-3-yl)methanesulfonamide]	*** (a value in the range of greater than 150 to 200)	*** (a value in the range of greater than 150 to 200)	
		< 500	500 to 5000	C/C(=C\c1ccc2c(c1)N(S(=O)(=O)c1cccc(C(F)(F)F)c1)CC(C(=O)O)C2)c1c(F)cccc1C(F)(F)F (stereo not shown) [Example 15C, (E)-7-(2-(2-fluoro-6-(trifluoromethyl)phenyl)prop-1-en-1-yl)-1-((3-(trifluoromethyl)phenyl)sulfonyl)-1,2,3,4-tetrahydroquinoline-3-carboxylic acid]			
				C/C(=C\c1ccc2c(c1)N(S(=O)(=O)c1cccc(C(F)(F)F)c1)CC(C(=O)O)C2)c1c(F)cccc1Cl (stereo not shown)			EC50 (RORγ-LBD; [3]): < 500 nM; EC50 (Gal4-RORγ-LBD; [4]): 500 to 5000 nM
< 500	500 to 5000			CC(=O)N[C@H]1Cc2ccc(/C=C(\C)c3c(F)cccc3Cl)cc2N(S(=O)(=O)c2cccc(C(F)(F)F)c2)C1 [Example 167, (S,E)-N-(7-(2-(2-chloro-6-fluorophenyl)prop-1-en-1-yl)-1-((3-(trifluoromethyl)phenyl)sulfonyl)-1,2,3,4-tetrahydroquinolin-3-yl)acetamide]	*** (a value in the range of greater than 150 to 200)	** (a value in the range of greater than 90 to 150)	
		< 500	500 to 5000	O=C(O)CC[C@H]1CN(S(=O)(=O)c2cc(C(F)(F)F)cnc2OCCO)c2cc(/C=C/c3c(F)cccc3Cl)ccc2O1 [Example 89EC, (S,E)-3-(6-(2-chloro-6-fluorostyryl)-4-((2-(2-hydroxyethoxy)-5-(trifluoromethyl)-pyridin-3-yl)sulfonyl)-3,4-dihydro-2H-benzo[b][1,4]oxazin-2-yl)propanoic acid]			
		< 500	500 to 5000	O=C(O)CC[C@H]1CN(S(=O)(=O)c2cc(C(F)(F)F)cnc2OCCO)c2cc(C=C3CCOCC3)ccc2O1 [Example 95O, (S)-3-(4-((2-(2-hydroxyethoxy)-5-(trifluoromethyl)pyridin-3-yl)sulfonyl)-6-((tetrahydro-4H-pyran-4-ylidene)methyl)-3,4-dihydro-2H-benzo[b][1,4]oxazin-2-yl)propanoic acid]			
		< 500	500 to 5000	Cc1cccnc1/C=C/c1ccc2c(c1)N(S(=O)(=O)c1cccc(C(F)(F)F)c1)C[C@H](CCC(=O)O)O2 [Example 89BJ, (S,E)-3-(6-(2-(3-methylpyridin-2-yl)vinyl)-4-((3-(trifluoromethyl)phenyl)sulfonyl)-3,4-dihydro-2H-benzo[b][1,4]oxazin-2-yl)propanoic acid]			
		< 500	> 10000	C/C(=C\c1ccc2c(c1)N(S(=O)(=O)c1cccc(C(F)(F)F)c1)C[C@H](CCC(=O)O)O2)c1c(C)noc1C [Example 86AC, (S,E)-3-(6-(2-(3,5-dimethylisoxazol-4-yl)prop-1-en-1-yl)-4-((3-(trifluoromethyl)phenyl)sulfonyl)-3,4-dihydro-2H-benzo[b][1,4]oxazin-2-yl)propanoic acid]			
		< 500	< 500	COC(=O)CC[C@H]1CN(S(=O)(=O)c2cccc(C(F)(F)F)c2)c2cc(/C=C/c3c(Cl)cccc3OC)ccc2O1 [Example 89EZ, methyl (S,E)-3-(6-(2-chloro-6-methoxystyryl)-4-((3-(trifluoromethyl)phenyl)-sulfonyl)-3,4-dihydro-2H-benzo[b][1,4]oxazin-2-yl)propanoate]			
< 500	< 500			CC(=O)N[C@@H]1Cc2ccc(OCc3c(F)cccc3Cl)cc2N(S(=O)(=O)c2cccc(C(F)(F)F)c2)C1 [Example 160, (R)—N-(7-((2-chloro-6-fluorobenzyl)oxy)-1-((3-(trifluoromethyl)phenyl)sulfonyl)-1,2,3,4-tetrahydroquinolin-3-yl)acetamide]			
< 500	< 500			COc1cc(S(=O)(=O)N2C[C@H](CNC(C)=O)Oc3ccc(/C=C(\C)c4c(F)cccc4Cl)cc32)ccc1F [Example 109B, (S,E)-N-((6-(2-(2-chloro-6-fluorophenyl)prop-1-en-1-yl)-4-((4-fluoro-3-methoxyphenyl)-sulfonyl)-3,4-dihydro-2H-benzo[b][1,4]oxazin-2-yl)methyl)acetamide]	** (a value in the range of greater than 90 to 150)	* (a value in the range of 30 to 90)	
				C/C(=C\c1ccc2c(c1)N(S(=O)(=O)c1cccc(C(F)(F)F)c1)C[C@H](CCC#N)O2)c1c(F)cccc1Cl			EC50 (RORγ-LBD; [3]): < 500 nM; EC50 (Gal4-RORγ-LBD; [4]): < 500 nM
		500 to 5000	> 10000	Cn1cnc(S(=O)(=O)N2C[C@H](CCC(=O)O)Oc3ccc(/C=C/c4c(F)cccc4Cl)cc32)c1Cl [Example 89DZ, (S,E)-3-(4-((5-chloro-1-methyl-1H-imidazol-4-yl)sulfonyl)-6-(2-chloro-6-fluorostyryl)-3,4-dihydro-2H-benzo[b][1,4]-oxazin-2-yl)propanoic acid]			
		< 500	< 500	COC(=O)CC[C@H]1CN(S(=O)(=O)c2cccc(C(F)(F)F)c2)c2cc(/C=C(\C)c3c(F)cccc3Cl)c(F)cc2O1 [Example 41, (S,E)-Methyl 3-(6-(2-(2-chloro-6-fluorophenyl)prop-1-en-1-yl)-7-fluoro-4-((3-(trifluoromethyl)phenyl)sulfonyl)-3,4-dihydro-2H-benzo[b][1,4]oxazin-2-yl)propanoate]			
		< 500	> 10000	O=C(O)CC[C@H]1CN(S(=O)(=O)c2cccc(C(F)(F)F)c2)c2cc(/C=C/c3cccc(F)c3Cl)ccc2O1 [Example 89BP, (S,E)-3-(6-(2-chloro-3-fluorostyryl)-4-((3-(trifluoromethyl)phenyl)sulfonyl)-3,4-dihydro-2H-benzo[b][1,4]oxazin-2-yl)propanoic acid]			
		< 500	> 10000	CCOc1nn(CC)cc1S(=O)(=O)N1C[C@H](CCC(=O)OC)Oc2ccc(/C=C/c3c(F)cccc3F)cc21 [Example 89AF, (S,E)-methyl 3-(6-(2,6-difluorostyryl)-4-((3-ethoxy-1-ethyl-1H-pyrazol-4-yl)sulfonyl)-3,4-dihydro-2H-benzo[b][1,4]oxazin-2-yl)propanoate]			

Structure (SMILES)	EC50 (RORγ-LBD; RORγ-LBD TR-FRET assay) [nM]	EC50 (Gal4-RORγ-LBD; [1]) [nM]	EC50 (RORγ-LBD; RORγ-LBD TR-FRET) [nM]	EC50 (Gal4-RORγ-LBD; [2]) [nM]	TR-FRET Assay Max Response (RORγ-LBD; RORγ-LBD TR-FRET assay)	Gal4-RORγ Assay Max Response (Gal4-RORγ-LBD; [1])	further results
C/C(=C\c1ccc2c(c1)N(S(=O)(=O)c1cccc(C(F)(F)F)c1)C[C@H](CCC(=O)N1CCC(C(=O)[O-])CC1)O2)c1c(F)cccc1Cl.[Na+] [Example 128, Sodium Salt of (S,E)-1-(3-(6-(2-(2-Chloro-6-fluorophenyl)prop-1-en-1-yl)-4-((3-(trifluoromethyl)phenyl)sulfonyl)-3,4-dihydro-2H-benzo[b][1,4]oxazin-2-yl)propanoyl)piperidine-4-carboxylic acid]	< 500	< 500			**** (a value greater than 200)	** (a value in the range of greater than 90 to 150)	
